{"source": "patent US6416965B2", "about": "“Screening methods for presqualene disphosphate analogs” (Brigham and Women's Hospital, priority 1997, dated 2002)", "key": {"human neutrophils": {"system": "human neutrophils", "assay": "FMLP-stimulated 1,4,5-inositol triphosphate (IP3) formation as surrogate for phospholipase C activity", "format": "cell-based", "details": "for inhibition of FMLP-triggered IP3 formation: compound 1 μM, 5 min 37° C., FMLP 100 nM, 10 seconds", "protocol": "Neutrophils (10^7/500 μl) were electroporated (1.65 kV/cm, 250 μF, Ω∞, Invitrogen Electroporator VI) at 0° C. in the presence of 10−^9-10−^6 M compound VI, VIII, FDP, FMP, squalene or vehicle (ethanol 0.2%). After electroporation, cells, in cytochrome c (0.7 mg/ml), were exposed (10 minutes, 37° C.) to either cytochalasin b (5 μg/mL) and FMLP (10^−7 M)(a) or PMA ((10^−7 M)(b) and supernatants monitored at […]. Electroporation gave a 49.9% reduction in FMLP-stimulated NADPH oxidase compared to naive cells. Values (FIGS. 4a and 4b) represent the mean±SEM for n≧3, d≧6. For adhesion (FIGS. 4c and 4d), changes in light transmittance were monitored (as in Fiore, S., Nicolaou, K. C., Caulfield, T., Kataoka, H. & Serhan, C. N. Biochem. J. 266, 25-31 (1990), the teachings of which are incorporated herein by reference) after addition of compounds VI, VIII (1.6 μM) or vehicle (0.5 min) and FMLP (0.5-5 μM) (2.5 min). Cell viability remained>99%. Values represent the mean±SEM for n=3, d=9. 1,4,5-inositol-triphosphate levels were determined (Amersham) in fresh PMN (10^7 cells) exposed (5 minutes, 37° C.) to compound VI, compound VIII (1 μM) or vehicle and stimulated with FMLP (10^−7M, 37° C.) (as in FIG. 4e). % Inhibition after 10 second exposure to FMLP is reported as mean±SEM for n=4, d≧8. *p <0.05 in Student's paired t-test compared with control, while “NS” indicates no significant change compared to incubations in the presence of vehicle (ethanol 0.2%) alone. Stereochemistry of PSDP and PSMP (FIG. 4f) were assigned by routine methods (Poulter, C. D. and Rilling, H. C. Acc. Chem. Res. 11, 307-313, (1978), the teachings of which are hereby incorporated by reference).\nIn addition to PLD, phospholipase C plays a critical role in intracellular signaling via the hydrolysis of inositol lipids to diacyl glyceride (DAG) and inositol trisphosphate (IP3) to effect a cascade of cellular events in response to pro-inflammatory stimuli. DAG activates protein kinases and is converted, in part, to phosphatidic acid by DAG kinase. Therefore, PLC together with DAG kinase provides a second major source of phosphatidic acid in human neutrophils (Agwu, DE, et al., Journal of Clinical Investigation 1991; 88:531). […] To this end, the impact of PSDP on fMLP-stimulated IP3 formation as a surrogate for phospholipase C activity was examined (FIG. 4e).\nAmersham's D-myo-inositol 1,4,5-trisphosphate (IP3) [^3H] assay was used for this procedure (Amersham code TRK 1000, including product assay, the contents of which are incorporated herein by reference). The assay is based on procedures developed by Takata S. et al. J. Clin. Invest. 93:499 (1994) and Dillon S. B. et al. J. Biol. Chem. 262:11546 (1987), the contents of which are incorporated herein by reference in their entirety. [drawing 24] […]"}, "Phospholipase D (PLD)": {"molecular_target": "Phospholipase D (PLD)", "assay": "Phospholipase D inhibition, choline release, Lineweaver-Burk analysis", "format": "biochemical", "details": "PLD 3 units/125 μL, phosphatidyl choline substrate, 30° C., pH 7.5", "text": "Phospholipase D (PLD) plays a central role in cellular activation in diverse cell types via the release of the bioactive […], phosphatidate. Several agonists operating through different classes of receptors have been defined that stimulate cellular PLD activity. No known endogenous regulators of PLD have been identified. Activation of neutrophils leads to an increase in intracellular phosphatidic acid that is generated predominantly via the hydrolysis of phosphatidyl choline by phospholipase D (Agwu, DE, et al., Journal of Clinical Investigation 1991; 88:531). Because PSDP inhibited phosphatidate mediated superoxide anion generation in human neutrophil sonicates (Levy, BD, et al., Nature 1997; 389:985), its impact on phospholipase D was determined. A purified enzyme was utilized to directly evaluate the action of PSDP with PLD. Lineweaver-Burk plots for PLD (3 units/125 μL; EC 3.1.4.4, Sigma Chemical Co.) in the presence of EtOH (0.2%) or increasing concentrations of PSDP are reported in FIG. 5. After addition of PSDP to PLD (5 min, 30° C.), phosphatidyl choline (lecithin) in 60 mM Tris/HCl+10 mM CaCl2, pH 7.5 was added (30° C.) and reactions were terminated at 30 second intervals (t0-90 sec) with Tris-HCl (1 M) plus EDTA (50 mM). Choline release was quantitated as in Abousalham A. et al. Biochimica et Biophysica Acta 1;1158 (1993). […]"}}, "data": [{"smiles": "CC(C)=CCC/C(C)=C/CC/C(C)=C/C1C(COP(=O)(O)OP(=O)(O)O)C1(C)CC/C=C(\\C)CCC=C(C)C", "note": "(stereo in doubt) [Compound VI, presqualene diphosphate]", "values": [{"measurement": "inhibition of FMLP-triggered IP3 formation", "setting": "human neutrophils", "value": 56, "unit": "%"}, {"measurement": "inhibition of FMLP-triggered IP3 formation", "setting": "human neutrophils; listed as PSDP", "value": "> 50", "unit": "%"}, {"measurement": "inhibition of 1,4,5-inositol-triphosphate formation", "setting": "human neutrophils; nM-μM amounts", "value": "inhibited"}, {"measurement": "Ki", "setting": "Phospholipase D (PLD)", "value": "< 100", "unit": "nM"}]}]}
